The term IC50 denotes the midpoint of a concentration-inhibition curve.

The assay deals with T1, KRAS G12C and cRAF interaction (Homo sapiens, UniProt P01116, C118S/C51S/C80L/G12C).
T1 construct: truncated version comprising amino acids 1-169
T1 sequence (P01116 1-169 isoform P01116-2 G12C/C51S/C80L/C118S): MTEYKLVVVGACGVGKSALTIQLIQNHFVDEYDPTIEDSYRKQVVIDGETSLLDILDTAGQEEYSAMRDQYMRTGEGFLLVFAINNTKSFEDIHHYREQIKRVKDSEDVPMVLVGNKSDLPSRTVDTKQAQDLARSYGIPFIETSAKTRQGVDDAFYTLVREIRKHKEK
As to the kind of experiment: Inhibition of KRAS G12C and cRAF binding (AlphaScreen). The format is biochemical. The note with it: KRAS G12C (Cys-light, aa 1-169) preloaded with GMPPNP, cRaf RBD (aa 50-131), 2 hours incubation. As to the method: The AlphaScreen technology was used to determine IC50s for compound inhibition of KRAS G12C (present as the Cys-light (C51S, C80L and C118S), truncated version comprising amino acids 1-169) and cRAF interaction. Compounds were diluted in 100% DMSO and each compound concentration was spotted at 200 nl/well onto low volume, white 384 well plates. The KRAS G12C contained a biotin-AviTag and the cRaf, as Ras-binding domain (amino acids 50-131, RBD), was GST-tagged. KRAS G12C was preloaded with the GTP analogue Guanosine 5′-[β,γ-imido]triphosphate (GMPPNP). The KRAS G12C was diluted in 25 mM Hepes, pH 7.4, 150 mM NaCl, 5 mM MgCl2, 0.01% TritonX-100 and 10 μM GMPPNP and added at 10 μl/well to compound-spotted plates resulting in a DMSO concentration of 2%. Plates were incubated for 2 hours. A mixture of RBD and the AlphaScreen streptavidin donor and glutathione acceptor beads diluted in 25 mM Hepes, pH 7.4, 150 mM NaCl, 5 mM MgCl2, 0.01% TritonX-100 and 2% DMSO was then added at 10 μl/well and incubated for 60-90 minutes before the samples were read for emission at 570 nm after excitation of the donor beads at 680 nm. All incubations were performed at room temperature. The final top compound concentration was 50 μM with 1:3 titrations for 10-point dose response curves. Final assay conditions were 0.5 nM KRAS G12C, 0.75 nM RBD and 5 μg/ml each of AlphaScreen donor and acceptor beads. IC50S were determined using nonlinear regression fit of [inhibitor] vs. response (4 parameters).
A counter assay was also set up to rule out inhibitors of the AlphaScreen technology itself. Compound plates were incubated for 2 hours as above with buffer only.
The AlphaScreen beads were added as above except biotin-AviTag-GST was substituted for the RBD. Samples were read and analyzed as above.
In turn, `O=C(/C=C/CN1[C@@H]2CC[C@H]1COC2)N1CCN(c2nc(OC[C@@]34CCCN3C[C@H](F)C4)nc3c(F)c(-c4cc(O)cc(Cl)c4C4CC4)ncc23)CC12COC2` [Example 29, (E)-4-((1R,5S)-3-oxa-8-azabicyclo[3.2.1]octan-8-yl)-1-(8-(7-(3-chloro-2-cyclopropyl-5-hydroxyphenyl)-8-fluoro-2-(((2R,7aS)-2-fluorotetrahydro-1H-pyrrolizin-7a(5H)-yl)methoxy)pyrido[4,3-d]pyrimidin-4-yl)-2-oxa-5,8-diazaspiro[3.5]nonan-5-yl) but-2-en-1-one] displayed an IC50 below 10 nM. Then `O=C(/C=C/CN1CCOCC1)N1CCN(c2nc(OC[C@@]34CCCN3C[C@H](F)C4)nc3c(F)c(-c4cc(O)cc(Cl)c4C4CC4)ncc23)CC12COC2` [Example 30, (E)-1-(8-(7-(3-chloro-2-cyclopropyl-5-hydroxyphenyl)-8-fluoro-2-(((2R,7aS)-2-fluorotetrahydro-1H-pyrrolizin-7a(5H)-yl)methoxy)pyrido[4,3-d]pyrimidin-4-yl)-2-oxa-5,8-diazaspiro[3.5]nonan-5-yl)-4-morpholinobut-2-en-1-one], with below 10 nM; and `C=CC(=O)N1CCN(c2nc(OC[C@@]34CCCN3C[C@H](F)C4)nc3c(F)c(-c4cc(O)cc(Cl)c4C4CC4)ncc23)CC12COC2` [Example 31, 1-(8-(7-(3-chloro-2-cyclopropyl-5-hydroxyphenyl)-8-fluoro-2-(((2R,7aS)-2-fluorotetrahydro-1H-pyrrolizin-7a(5H)-yl)methoxy)pyrido[4,3-d]pyrimidin-4-yl)-2-oxa-5,8-diazaspiro[3.5]nonan-5-yl) prop-2-en-1-one], with below 10 nM.

Take `Cc1cc(/C=C/C(=O)N2CCN(c3nc(OC[C@@]45CCCN4C[C@H](F)C5)nc4c(F)c(-c5cccc6ccc(F)c(F)c56)ncc34)CC23COC3)nc(C)n1` [Example 32, (E)-1-(8-(7-(7,8-difluoronaphthalen-1-yl)-8-fluoro-2-(((2R,7aS)-2-fluorotetrahydro-1H-pyrrolizin-7a(5H)-yl)methoxy)pyrido[4,3-d]pyrimidin-4-yl)-2-oxa-5,8-diazaspiro[3.5]nonan-5-yl)-3-(2,6-dimethylpyrimidin-4-yl) prop-2-en-1-one]: the IC50 is 10 to 100 nM. Then `C=CC(=O)N1CCN(c2nc(OC[C@@]34CCCN3C[C@H](F)C4)nc3c(F)c(-c4cccc5ccc(F)c(Cl)c45)ncc23)CC12COC2` [Example 33, 1-(8-(7-(8-chloro-7-fluoronaphthalen-1-yl)-8-fluoro-2-(((2R,7aS)-2-fluorotetrahydro-1H-pyrrolizin-7a(5H)-yl)methoxy)pyrido[4,3-d]pyrimidin-4-yl)-2-oxa-5,8-diazaspiro[3.5]nonan-5-yl) prop-2-en-1-one], with 10 to 100 nM; and `C#Cc1c(F)ccc2cccc(-c3ncc4c(N5CCN(C(=O)/C=C/CN6[C@@H]7CC[C@H]6COC7)C6(COC6)C5)nc(OC[C@@]56CCCN5C[C@H](F)C6)nc4c3F)c12` [Example 34, (E)-4-((1R,5S)-3-oxa-8-azabicyclo[3.2.1]octan-8-yl)-1-(8-(7-(8-ethynyl-7-fluoronaphthalen-1-yl)-8-fluoro-2-(((2R,7aS)-2-fluorotetrahydro-1H-pyrrolizin-7a(5H)-yl)methoxy)pyrido[4,3-d]pyrimidin-4-yl)-2-oxa-5,8-diazaspiro[3.5]nonan-5-yl) but-2-en-1-one], with below 10 nM. Then `C=CC(=O)N1CCN(c2nc(OC[C@@]34CCCN3C[C@H](F)C4)nc3c(F)c(-c4cccc5ccc(F)c(F)c45)ncc23)CC12COC2` [Example 35, 1-(8-(7-(7,8-difluoronaphthalen-1-yl)-8-fluoro-2-(((2R,7aS)-2-fluorotetrahydro-1H-pyrrolizin-7a(5H)-yl)methoxy)pyrido[4,3-d]pyrimidin-4-yl)-2-oxa-5,8-diazaspiro[3.5]nonan-5-yl) prop-2-en-1-one], with below 10 nM. On to `O=C(/C=C/CN1[C@@H]2CC[C@H]1COC2)N1CCN(c2nc(OCC34CCCN3CCC4)nc3c(F)c(-c4cccc5cccc(Cl)c45)ncc23)CC12COC2` [Example 36, (E)-4-((1R,5S)-3-oxa-8-azabicyclo[3.2.1]octan-8-yl)-1-(8-(7-(8-chloronaphthalen-1-yl)-8-fluoro-2-((tetrahydro-1H-pyrrolizin-7a(5H)-yl)methoxy)pyrido[4,3-d]pyrimidin-4-yl)-2-oxa-5,8-diazaspiro[3.5]nonan-5-yl) but-2-en-1-one], for which the IC50 was below 10 nM.

Regarding `CN1CC[C@@H]1/C=C/C(=O)N1CCN(c2nc(OC[C@@]34CCCN3C[C@H](F)C4)nc3c(F)c(-c4cccc5cccc(Cl)c45)ncc23)CC12COC2` [Example 37, (E)-1-(8-(7-(8-chloronaphthalen-1-yl)-8-fluoro-2-(((2R,7aS)-2-fluorotetrahydro-1H-pyrrolizin-7a(5H)-yl)methoxy)pyrido[4,3-d]pyrimidin-4-yl)-2-oxa-5,8-diazaspiro[3.5]nonan-5-yl)-3-((R)-1-methylazetidin-2-yl) prop-2-en-1-one], the IC50 is 10 to 100 nM. Then `C=CC(=O)N1CCN(c2nc(OC[C@@]34CCCN3C[C@H](F)C4)nc3c(F)c(-c4cccc(Cl)c4C4CC4)ncc23)CC12COC2` [Example 38, 1-(8-(7-(3-chloro-2-cyclopropylphenyl)-8-fluoro-2-(((2R,7aS)-2-fluorotetrahydro-1H-pyrrolizin-7a(5H)-yl)methoxy)pyrido[4,3-d]pyrimidin-4-yl)-2-oxa-5,8-diazaspiro[3.5]nonan-5-yl) prop-2-en-1-one], with 10 to 100 nM.

`C=CC(=O)N1CCN(c2nc(OC[C@@]34CCCN3C[C@H](F)C4)nc3c(F)c(-c4cccc(Cl)c4C(F)(F)F)ncc23)CC12COC2` [Example 39, 1-(8-(7-(3-chloro-2-(trifluoromethyl)phenyl)-8-fluoro-2-(((2R,7aS)-2-fluorotetrahydro-1H-pyrrolizin-7a(5H)-yl)methoxy)pyrido[4,3-d]pyrimidin-4-yl)-2-oxa-5,8-diazaspiro[3.5]nonan-5-yl) prop-2-en-1-one] displayed an IC50 of 10 to 100 nM.

In the case of `CC(C#CC(=O)N1CCN(c2nc(OC[C@@]34CCCN3C[C@H](F)C4)nc3c(F)c(-c4cccc5cccc(Cl)c45)ncc23)CC12COC2)N1CCOCC1` (stereo partly drawn) [Example 40, 1-(8-(7-(8-chloronaphthalen-1-yl)-8-fluoro-2-(((2R,7aS)-2-fluorotetrahydro-1H-pyrrolizin-7a(5H)-yl)methoxy)pyrido[4,3-d]pyrimidin-4-yl)-2-oxa-5,8-diazaspiro[3.5]nonan-5-yl)-4-morpholinopent-2-yn-1-one], the IC50 is 100 to 500 nM.

On to `Cc1nccc(/C=C/C(=O)N2CCN(c3nc(OC[C@@]45CCCN4C[C@H](F)C5)nc4c(F)c(-c5cc(O)cc(Cl)c5C5CC5)ncc34)CC23COC3)n1` [Example 41, (E)-1-(8-(7-(3-chloro-2-cyclopropyl-5-hydroxyphenyl)-8-fluoro-2-(((2R,7aS)-2-fluorotetrahydro-1H-pyrrolizin-7a(5H)-yl)methoxy)pyrido[4,3-d]pyrimidin-4-yl)-2-oxa-5,8-diazaspiro[3.5]nonan-5-yl)-3-(2-methylpyrimidin-4-yl) prop-2-en-1-one], for which the IC50 was below 10 nM.

On to `C#Cc1c(F)ccc2cccc(-c3ncc4c(N5CCN(C(=O)/C=C/CN6C[C@@H]7C[C@H]6CO7)C6(COC6)C5)nc(OC[C@@]56CCCN5C[C@H](F)C6)nc4c3F)c12` [Example 42, (E)-4-((1S,4S)-2-oxa-5-azabicyclo[2.2.1]heptan-5-yl)-1-(8-(7-(8-ethynyl-7-fluoronaphthalen-1-yl)-8-fluoro-2-(((2R,7aS)-2-fluorotetrahydro-1H-pyrrolizin-7a(5H)-yl)methoxy)pyrido[4,3-d]pyrimidin-4-yl)-2-oxa-5,8-diazaspiro[3.5]nonan-5-yl) but-2-en-1-one], for which the IC50 is below 10 nM. Then `C#Cc1c(F)ccc2cccc(-c3ncc4c(N5CCN(C(=O)/C=C/CN6CC[C@@H](OC)C6)C6(COC6)C5)nc(OC[C@@]56CCCN5C[C@H](F)C6)nc4c3F)c12` [Example 43, (E)-1-(8-(7-(8-ethynyl-7-fluoronaphthalen-1-yl)-8-fluoro-2-(((2R,7aS)-2-fluorotetrahydro-1H-pyrrolizin-7a(5H)-yl)methoxy)pyrido[4,3-d]pyrimidin-4-yl)-2-oxa-5,8-diazaspiro[3.5]nonan-5-yl)-4-((R)-3-methoxypyrrolidin-1-yl) but-2-en-1-one], with 10 to 100 nM; and `C#Cc1c(F)ccc2cccc(-c3ncc4c(N5CCN(C(=O)/C=C/CN6CC[C@@H](F)C6)C6(COC6)C5)nc(OC[C@@]56CCCN5C[C@H](F)C6)nc4c3F)c12` [Example 44, (E)-1-(8-(7-(8-ethynyl-7-fluoronaphthalen-1-yl)-8-fluoro-2-(((2R,7aS)-2-fluorotetrahydro-1H-pyrrolizin-7a(5H)-yl)methoxy)pyrido[4,3-d]pyrimidin-4-yl)-2-oxa-5,8-diazaspiro[3.5]nonan-5-yl)-4-((R)-3-fluoropyrrolidin-1-yl) but-2-en-1-one], with below 10 nM.
